Results as given in publication PMC3278557 (Pharmacological Research, 2011).

System: cultured neonatal rat cardiomyocytes
Assay: Effects on hypoxic cardiomyocytes
Assay type: cell-based

Compound	antagonism of the protective effect of 6 (1 nM) (antagonist at 1 μM, LDH release or PI staining)	anti-hypoxic protective potency (concentration range) [nM]	cardioprotection of hypoxic cardiomyocytes (100 nM)
CCCOC(=O)c1c(-c2ccccc2)nc(CC)c(C(=O)SCC)c1CCC [MRS1523, 5-propyl-2-ethyl-4-propyl-3-(ethylsulfanylcarbonyl)-6-phenylpyridine-5-carboxylate]	completely reversed		
CNC(=O)[C@H]1O[C@@H](n2cnc3c(NCc4cccc(I)c4)nc(Cl)nc32)[C@H](O)[C@@H]1O [Cl-IB-MECA, 2-chloro-N^6-(3-iodobenzyl)-5′-N-methylcarboxamidoadenosine]		~100	provided cardioprotection
